This is an account of results in patent US20250296959A1, “B7-H3 TARGETING PEPTIDES AND CONSTRUCTS THEREOF” (Mariana Oncology Inc., priority 2024, published 2025).

Structures are written as SMILES. Starred links: 1 amine or outer side, 2 acyl side, 3 side chain; linkers in the order of their positions; H or OH if unused. Positions of bridges follow the written chain, without caps; N, C: chain ends. Non-standard residues stand in square brackets, D forms with d. Residues, ends and D or L forms follow the SMILES beside them. Groups on a side chain read outwards from the residue. ξ: configuration not given here. *: point of attachment. Ala(1-CH2CO2H-4-piperidyl) = N[C@@H](CC1CCN(CC(=O)O)CC1)C(=O)O; Ala(piperidin-4-yl) = O=C([C@H](CC1CCN([*:3])CC1)N[*:1])[*:2]; DOTA = O=C(O)CN1CCN(CC(=O)O)CCN(CC(=O)*)CCN(CC(=O)O)CC1; Phe(4-NHCONH2) = NC(=O)Nc1ccc(C[C@H](N)C(=O)O)cc1; Phe(4-COOH) = N[C@@H](Cc1ccc(C(=O)O)cc1)C(=O)O; Trp(5-F) = N[C@@H](Cc1c[nH]c2ccc(F)cc12)C(=O)O; X1 = C[C@@H](c1ccccc1)[C@H](N[*:1])C(=O)[*:2]; PEG8 = NCCOCCOCCOCCOCCOCCOCCOCCOCCC(=O)O; γGlu = O=C(O)[C@H](CCC(=O)[*:2])N[*:1]; 1Nal = N[C@@H](Cc1cccc2ccccc12)C(=O)O; 2Nal = N[C@@H](Cc1ccc2ccccc2c1)C(=O)O; Ala(4-THP) = N[C@@H](CC1CCOCC1)C(=O)O; Val(3-OH) = CC(C)(O)[C@H](N)C(=O)O; 4Pal = N[C@@H](Cc1ccncc1)C(=O)O; Chg = N[C@H](C(=O)O)C1CCCCC1; NMeK = CN[C@@H](CCCCN)C(=O)O; PEG4 = NCCOCCOCCOCCOCCC(=O)O; Tle = CC(C)(C)[C@H](N)C(=O)O; hLeu = CC(C)CC[C@H](N)C(=O)O; NMeS = CN[C@@H](CO)C(=O)O; Nle = CCCC[C@H](N)C(=O)O; ξV = CC(C)C(N)C(=O)O Some results are limits rather than exact numbers.

The Kd is a measure of binding affinity in units of concentration. Lower therefore signals tighter binding.

The target of this assay is T1, human 4lg B7-H3 (Homo sapiens, UniProt Q5ZPR3).
T1 sequence (Q5ZPR3 29-534): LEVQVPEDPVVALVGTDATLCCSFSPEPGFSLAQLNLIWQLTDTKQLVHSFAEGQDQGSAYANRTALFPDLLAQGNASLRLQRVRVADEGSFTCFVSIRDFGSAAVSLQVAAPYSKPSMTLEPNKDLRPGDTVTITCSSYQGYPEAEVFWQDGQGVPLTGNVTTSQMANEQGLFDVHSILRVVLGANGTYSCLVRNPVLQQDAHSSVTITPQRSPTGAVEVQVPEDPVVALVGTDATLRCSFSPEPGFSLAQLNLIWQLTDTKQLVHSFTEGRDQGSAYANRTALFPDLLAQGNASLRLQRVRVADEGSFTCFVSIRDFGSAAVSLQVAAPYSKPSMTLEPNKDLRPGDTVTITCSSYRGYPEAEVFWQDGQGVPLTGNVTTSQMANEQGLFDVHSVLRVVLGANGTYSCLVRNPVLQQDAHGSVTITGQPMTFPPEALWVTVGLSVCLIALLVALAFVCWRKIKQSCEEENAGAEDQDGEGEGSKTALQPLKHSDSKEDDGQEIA
Briefly: Affinity determination by surface plasmon resonance (SPR) to 4Ig B7-H3. The following applies: 4Ig B7-H3.

Where [1] appears, read: SPR KD—37° C., 37° C. flow cell temperature.
Setting [2] is: SPR KD—25° C., 25° C. flow cell temperature.

As to `CC(=O)N[C@@H](CCC(C)C)C(=O)N[C@@H](Cc1ccc(O)cc1)C(=O)N[C@H]1CSSC[C@@H](C(=O)N[C@@H](Cc2c[nH]c3ccc(F)cc23)C(=O)N[C@@H](Cc2ccccc2)C(=O)N[C@H](C(=O)N[C@H](CO)C(=O)O)C(C)(C)O)NC(=O)[C@H](Cc2ccc(O)cc2)NC(=O)[C@H](C(C)C)NC(=O)[C@H](CC(=O)O)NC(=O)[C@H](CC2CCOCC2)NC(=O)[C@H](CC2CCN(C(=O)CCOCCOCCOCCOCCNC(=O)CN3CCN(CC(=O)O)CCN(CC(=O)O)CCN(CC(=O)O)CC3)CC2)NC(=O)CNC(=O)[C@H](C(C)(C)C)NC1=O` [compound 490, Ac-hLeu-Y-C-Tbg-G-Pip(PEG4-DOTA)Ala-ThpA-D-V-Y-C-5FW-F-hydroxyVal-dSer-COOH] (Ac-[hLeu]YC[Tle]G[Ala(piperidin-4-yl)]([PEG4-DOTA])[Ala(4-THP)]DVYC[Trp(5-F)]F[Val(3-OH)][dS]-OH; disulfide 3-11), under setting [1], the Kd was less than 1 nM.

`CCCC[C@H](NC(C)=O)C(=O)N[C@@H](Cc1ccc(O)cc1)C(=O)N[C@H]1CSSC[C@@H](C(=O)N[C@@H](Cc2c[nH]c3ccccc23)C(=O)N[C@@H](Cc2ccccc2)C(=O)N[C@@H](CCC(=O)N[C@H](CCCCNC(=O)CN2CCN(CC(=O)O)CCN(CC(=O)O)CCN(CC(=O)O)CC2)C(N)=O)C(=O)O)NC(=O)[C@H](Cc2ccc(O)cc2)NC(=O)[C@H](C(C)C)NC(=O)[C@H](CC(=O)O)NC(=O)[C@H](Cc2ccc(O)cc2)NC(=O)[C@H](CCCCN)NC(=O)CNC(=O)[C@H](C(C)C)NC1=O` [compound 31, Ac-Nle-Y-C-V-G-K-Y-D-V-Y-C-W-F-gE-dLys(DOTA)-CONH2] (Ac-[Nle]YCVGKYDVYCWF[γGlu][dK](DOTA)-NH2; disulfide 3-11): the Kd under setting [1] was 100 to 300 nM.

Turning to `CC(=O)N[C@@H](CCC(C)C)C(=O)N[C@@H](Cc1ccc(O)cc1)C(=O)N[C@H]1CSSC[C@@H](C(=O)N[C@@H](Cc2c[nH]c3ccc(F)cc23)C(=O)N[C@@H](Cc2ccccc2)C(=O)N[C@H](C(=O)N[C@H](CCCCNC(=O)CN2CCN(CC(=O)O)CCN(CC(=O)O)CCN(CC(=O)O)CC2)C(=O)O)[C@@H](C)O)NC(=O)[C@H](Cc2ccc(O)cc2)NC(=O)[C@H](C(C)C)NC(=O)[C@H](CC(=O)O)NC(=O)[C@H](CC2CCOCC2)NC(=O)[C@H](CCCCN)N(C)C(=O)CNC(=O)[C@H](C(C)(C)C)NC1=O` [compound 352, Ac-hLeu-Y-C-Tbg-G-NMeLys-ThpA-D-V-Y-C-5FW-F-Thr-dLys(DOTA)-COOH] (Ac-[hLeu]YC[Tle]G[NMeK][Ala(4-THP)]DVYC[Trp(5-F)]FT[dK](DOTA)-OH; disulfide 3-11), the Kd under setting [2] fell in the range of 10 to 100 nM.

`CC(=O)N[C@@H](CCC(C)C)C(=O)N[C@@H](Cc1ccc(O)cc1)C(=O)N[C@H]1CSSC[C@@H](C(=O)N[C@@H](Cc2c[nH]c3ccc(F)cc23)C(=O)N[C@H](C(=O)N[C@H](C(=O)N[C@H](CCCCNC(=O)[C@H](CCC(=O)O)NC(=O)CN2CCN(CC(=O)O)CCN(CC(=O)O)CCN(CC(=O)O)CC2)C(=O)O)C(C)(C)O)[C@@H](C)c2ccccc2)NC(=O)[C@H](Cc2ccc(NC(N)=O)cc2)NC(=O)[C@H](C(C)C)NC(=O)[C@H](CC(=O)O)NC(=O)[C@H](CC2CCOCC2)NC(=O)[C@H](CC2CCNCC2)NC(=O)CNC(=O)[C@H](C(C)(C)C)NC1=O` [compound 503, Ac-hLeu-Y-C-Tbg-G-PipAla-ThpA-D-V-Aph(Cbm)-C-5FW-[(2S, 3S)beta-Me-Phe]-hydroxyVal-dLys(Glu-DOTA)-COOH] (Ac-[hLeu]YC[Tle]G[Ala(piperidin-4-yl)][Ala(4-THP)]DV[Phe(4-NHCONH2)]C[Trp(5-F)][X1][Val(3-OH)][dK]([Glu-DOTA])-OH; disulfide 3-11): the Kd under setting [1] was less than 1 nM.

On to `CC(=O)N[C@@H](CCC(C)C)C(=O)N[C@@H](Cc1ccc(O)cc1)C(=O)N[C@H]1CSSC[C@@H](C(=O)N[C@@H](Cc2cccc3ccccc23)C(=O)N[C@@H](Cc2ccccc2)C(=O)N(C)[C@@H](CO)C(=O)N[C@H](CCCCNC(=O)CN2CCN(CC(=O)O)CCN(CC(=O)O)CCN(CC(=O)O)CC2)C(N)=O)NC(=O)[C@H](C2CCCCC2)NC(=O)[C@H](C(C)C)NC(=O)[C@H](CC(=O)O)NC(=O)[C@H](Cc2ccncc2)NC(=O)[C@H](CCCCN)NC(=O)CNC(=O)[C@H](C(C)(C)C)NC1=O` [compound 243, Ac-hLeu-Y-C-Tbg-G-K-4PyA-D-V-Chg-C-1Nal-F-NMeSer-dLys(DOTA)-CONH2] (Ac-[hLeu]YC[Tle]GK[4Pal]DV[Chg]C[1Nal]F[NMeS][dK](DOTA)-NH2; disulfide 3-11), for which the Kd under setting [2] fell in the range of 10 to 100 nM.

In turn, `CCCC[C@H](NC(=O)CCOCCOCCOCCOCCOCCOCCOCCOCCNC(=O)CN1CCN(CC(=O)O)CCN(CC(=O)O)CCN(CC(=O)O)CC1)C(=O)N[C@@H](Cc1ccc(O)cc1)C(=O)N[C@H]1CSSC[C@@H](C(=O)N[C@@H](Cc2c[nH]c3ccccc23)C(=O)N[C@@H](Cc2ccccc2)C(=O)N[C@H](C(N)=O)[C@@H](C)O)NC(=O)[C@H](Cc2ccc(O)cc2)NC(=O)[C@H](C(C)C)NC(=O)[C@H](CC(=O)O)NC(=O)[C@H](Cc2ccc(O)cc2)NC(=O)[C@H](CCCCN)NC(=O)CNC(=O)[C@H](C(C)C)NC1=O` [compound 94, DOTA-PEG8-Nle-Y-C-V-G-K-Y-D-V-Y-C-W-F-Thr-CONH2] ({DOTA-PEG8}-[Nle]YCVGKYDVYCWFT-NH2; disulfide 3-11) gave a Kd under setting [2] of 10 to 100 nM.

With `CC(=O)N[C@@H](CCC(C)C)C(=O)N[C@@H](Cc1ccc(O)cc1)C(=O)N[C@H]1CSSC[C@@H](C(=O)N[C@@H](Cc2c[nH]c3ccccc23)C(=O)N[C@@H](Cc2ccccc2)C(=O)N[C@H](C(N)=O)[C@@H](C)O)NC(=O)[C@H](Cc2ccc(O)cc2)NC(=O)[C@H](C(C)C)NC(=O)[C@H](CC(=O)O)NC(=O)[C@H](CCCCNC(=O)CN2CCN(CC(=O)O)CCN(CC(=O)O)CCN(CC(=O)O)CC2)NC(=O)[C@H](CCCCN)NC(=O)CNC(=O)[C@H](C(C)C)NC1=O` [compound 144, Ac-hLeu-Y-C-V-G-K-Lys(DOTA)-D-V-Y-C-W-F-Thr-CONH2] (Ac-[hLeu]YCVGKK(DOTA)DVYCWFT-NH2; disulfide 3-11), under setting [2], the Kd is 10 to 100 nM.

For `CC(=O)N[C@@H](CCC(C)C)C(=O)N[C@@H](Cc1ccc(O)cc1)C(=O)N[C@H]1CSSC[C@@H](C(=O)N[C@@H](Cc2c[nH]c3ccc(F)cc23)C(=O)N[C@@H](Cc2ccccc2)C(=O)N2CCC[C@H]2C(=O)N[C@H](CCCCNC(=O)CN2CCN(CC(=O)O)CCN(CC(=O)O)CCN(CC(=O)O)CC2)C(N)=O)NC(=O)[C@H](Cc2ccc(O)cc2)NC(=O)[C@H](C(C)C)NC(=O)[C@H](CC(=O)O)NC(=O)[C@H](Cc2ccc(C(=O)O)cc2)NC(=O)[C@H](CC2CCN(CC(=O)O)CC2)NC(=O)CNC(=O)[C@H](C(C)C)NC1=O` [compound 320, Ac-hLeu-Y-C-V-G-[Pip(CH2CO2H)Ala]-4COOHPhe-D-V-Y-C-5FW-F-Pro-dLys(DOTA)-CONH2] (Ac-[hLeu]YCVG[Ala(1-CH2CO2H-4-piperidyl)][Phe(4-COOH)]DVYC[Trp(5-F)]FP[dK](DOTA)-NH2; disulfide 3-11), the Kd under setting [1] was 1 to 10 nM.

As for `CCCC[C@H](NC(C)=O)C(=O)N[C@@H](Cc1ccc(O)cc1)C(=O)N[C@H]1CSSC[C@@H](C(=O)N[C@@H](Cc2ccc3ccccc3c2)C(=O)N[C@@H](Cc2ccccc2)C(=O)N[C@H](C(=O)N[C@H](CCCCNC(=O)CN2CCN(CC(=O)O)CCN(CC(=O)O)CCN(CC(=O)O)CC2)C(N)=O)[C@@H](C)O)NC(=O)[C@H](Cc2ccc(O)cc2)NC(=O)C(C(C)C)NC(=O)[C@H](CC(=O)O)NC(=O)[C@H](Cc2ccc(O)cc2)NC(=O)[C@H](CCCCN)NC(=O)CNC(=O)[C@H](C(C)C)NC1=O` (stereo partly drawn) [compound 129, Ac-Nle-Y-C-V-G-K-Y-D-V-Y-C-2Nal-F-Thr-dLys(DOTA)-CONH2] (Ac-[Nle]YCVGKYD[ξV]YC[2Nal]FT[dK](DOTA)-NH2; disulfide 3-11), under setting [2], the Kd was 100 to 300 nM.
